Measured values from patent publication US5559129A, “Indole derivatives” (priority 1995, dated 1996).

Assays:
[1] = Solid-state and solubility properties of the α-form of the hydrobromide salt; type: physicochemical; conditions: crystalline α-form of the hydrobromide salt
[2] = test system: plasma protein extravasation response within the dura mater; assay: Inhibition of plasma protein extravasation within the dura mater following unilateral electrical trigeminal ganglion stimulation; type: in vivo, guinea pig; conditions: for minimal effective dose: Cavia porcellus, iv, i.v. in guinea pigs, read-out: M.E.D. (minimally effective dose) for inhibition of plasma protein extravasation
Experimental: The active compounds of the present invention are also evaluated via the inhibition of plasma protein extravasation response within the dura mater of guinea pigs following unilateral electrical trigeminal ganglion stimulation. The extent to which they mimic sumatriptan, in terms of both potency and efficacy, is determined in this assay. The procedure is performed on male Hartley guinea pigs (200-250 g, Charles River Laboratories, Wilmington, Mass., U.S.A.) as described in Markowitz et al., J. Neurosci., 7 (12), 4129-4136 (1987) and also in Lee, et al., Brain Reseach, 626, 303-305 (1993). The procedure briefly consists of placing pentobarbitone-anesthetized animals in a stereotaxic frame. ^125 I-BSA (bovine serum albumin) (50 μCi/kg^-1) is first injected into the femoral vein, followed 5 minutes later by drug or vehicle. Bipolar electrodes are then lowered into the trigeminal ganglia, and the right ganglion is stimulated for 5 minutes (1.2 mA, 5 Hz, 5 msec). The animal is then perfused with saline through the left cardiac ventricle and sacrificed, and the dura mater is dissected, weighed, and counted for radioactivity. Cpm/mg wet weight values are determined for the right vs left dura mater, and a ratio for the stimulated vs unstimulated sides is generated for each animal. Unpaired student's t-test is used to statistically compare these ratio values in respective groups treated with vehicle or drug.

[3] = test system: carotid vascular resistance; conditions: anaesthetized dog; cited from earlier work
[4] = test system: dog isolated saphenous vein strip; conditions: antagonist of the vein strip contraction; cited from earlier work

Br.CN1CCC[C@@H]1Cc1c[nH]c2ccc(CCS(=O)(=O)c3ccccc3)cc12 [α-form, (R)-5-(2-phenylsulphonylethyl)-3-(N-methylpyrrolidin-2-ylmethyl)-1H-indole hydrobromide]
hygroscopicity [1]: non-hygroscopic | solid-state stability [1]: possesses solid-state stability | solubility and dissolution behavior [1]: acceptable solubility and dissolution behavior

CNS(=O)(=O)Cc1ccc2[nH]cc(C[C@H]3CCCN3C)c2c1 [Example 5A, (R)-5-(Methylaminosulfonylmethyl)-3-(N-methylpyrrolidin-2-ylmethyl)-1H-indole]
minimal effective dose [2]: 1e-06 µmol/kg

CNS(=O)(=O)Cc1ccc2[nH]cc(CCN(C)C)c2c1 [Sumatriptan]
increase in carotid vascular resistance [3]: selective increase in carotid vascular resistance

CNS(=O)(=O)Cc1ccc2[nH]cc(C[C@H]3CCCN3)c2c1 [Example 6A, (R)-5-(Methylaminosulfonylmethyl)-3-(pyrrolidin-2-ylmethyl)-1H-indole]
minimal effective dose [2]: 1e-07 µmol/kg

CN1C[C@H](CNC(=O)OCc2ccccc2)C[C@@H]2c3cccc4c3c(cn4C)C[C@H]21 [metergoline, reference compound]
block of the effect of the drugs by a known serotonin antagonist ([2]; antagonist of the inhibition of plasma protein extravasation): partially blocked

CSc1ccc2c(c1)C(N1CCN(C)CC1)Cc1ccccc1S2 (centres unmarked) [methiothepin]
block of the contractile effect by a known serotonin antagonist [4]: blocked
